These results are taken from patent US20060246124A1, “Methods of treating cancer with lipid-based platinum compound formulations administered intraperitoneally” (priority 2004, published 2006).

One data set deals with L1210 cells. As to the kind of experiment: Survival of mice with implanted L1210 tumor cells: cyclic temperature vs non cyclic temperature cisplatin liposomes. The settings on record: single bolus ip 6 mg/kg on day 5, L1210, DBA/2 mice. It counts as in vivo. The protocol: DPPC (3.0 g) and cholesterol (1.2 g) were co-dissolved in 20 mL of ethanol. • 2.
Female DBA/2 mice (Charles Rivers) were used. Thirty (30) mice were injected with 2×10^6 L1210 cells ip on Day 0. On day 1, the mice were weighed and randomized into 3 groups of 10 mice. […] Survival was monitored. Mice were weighed daily after day 10. Mice that lost 20% or greater of their starting weight were euthanized by CO2 inhalation. The date of their death was recorded on data sheets. Median survival was calculated by Prism GraphPad.

In the next data set the test system is L1210 tumor cells. As to the kind of experiment: In vivo antitumor activity in Murine L1210 tumor model (ascitic L1210 leukemia), ip administration. To be noted: L1210, B6D2F1 mice. How it is done: The test articles and materials are presented below in Table 5.
Day 0, inoculate 6 groups of 5 male mice and 1 group of 9 male control animals with one million viable L1210 cells per mouse by ip injection. • 2. […] Each dose level represents one group of five mice. […] Control group contains 9 untreated mice.
3. Mice were monitored daily for deaths and or signs of clinical illness. The date of euthanasia was recorded for the purpose of experimental end-points. A total of 39 mice divided into 7 groups were studied. At the end point survival was assessed and expressed as % T/C (percent median survival of treated group: median survival of control group.)

The subject of a further data set is stage III ovarian cancer. The settings on record: ip, patients with stage III ovarian cancer and residual tumor masses of 2 cm or less; cited from earlier work.
The test system of a further data set is mice. As to the kind of experiment: Maximum tolerated dose (MTD), single bolus ip injection. It counts as in vivo.
Data set [1] in a line: Pharmacokinetics and organ distribution (Part II), platinum by ICP-MS. It counts as in vivo, mice. To be noted: ip. The protocol: Sixty ICR mice (female, 7 weeks old) were divided into 4 groups. […] At each designed time point, three to four mice were anaesthetized with 70 mg/kg of Nembutal ip (e.g., 3, 20, and 40 min, and 2, 8, 24, 48, and 72 h). […] Organs including duodenum, kidney, liver, lung, and spleen were resected from the mice. The blood and organ samples were homogenized in distilled water (4-fold of the sample weight) and digested with nitric acid. The platinum concentration in each sample was measured by Inductively Coupled Plasma-Mass Spectrometer (ICP-MS). The pharmacokinetics profiles (FIGS. 3-7, all Y-axes are concentration of μg platinum in one gram of tissue or fluid per mg of injected dose) and parameters (Tables 3 and 4) of each formulation were simulated and calculated.

Where [2] appears, read: ip dose 3 mg/kg (1 mg/kg on days 3, 7, 11).
Setting [3] is: ip dose 4.5 mg/kg ([…] on days 3, 7, 11).

For the molecule `N.N.[Cl][Pt][Cl]` [Cisplatin, cis-diamine-dichloroplatinum (II)], the Median survival with L1210 cells was determined as 19.5 days. In the data set with L1210 tumor cells (setting [2]), the “% T/C” value was 196% and the Median survival was 26.5 days. Also, in the data set with L1210 tumor cells (setting [3]), the “% T/C” value was 218% and the Median survival came to 29.5 days. In addition, in the data set with stage III ovarian cancer, the “survival compared with iv cisplatin” value is “significantly improves survival”. In the data set with mice, the MTD (in general, the highest dose tested that stayed within the study's limit of toxicity) is reported as 9 mg/kg. For the same molecule, the “Circulation AUC” value in data set [1] (blood, normalised to injected dose) stood at 7.08 µg·h/g/µg. Moreover, the “Organ AUC, Duodenum” value in data set [1] (duodenum) came to 8.32 µg·h/g/µg. Also, in data set [1] (heart), the “Organ AUC, Heart” value was determined as 2.67 µg·h/g/µg. Besides, in data set [1] (kidney), the “Organ AUC, Kidney” value was 8.61 µg·h/g/µg and the “Organ Cmax, Kidney” value came out at 0.46 µg/g/µg. In data set [1] (liver), the “Organ AUC, Liver” value is 28.99 µg·h/g/µg and the “Organ Cmax, Liver” value was found to be 0.71 µg/g/µg. Further, in data set [1] (lung), the “Organ AUC, Lung” value worked out at 29.00 µg·h/g/µg and the “Organ Cmax, Lung” value was found to be 1.61 µg/g/µg. The “Organ AUC, Spleen” value in data set [1] (spleen) was determined as 10.45 µg·h/g/µg.
